One series concerns the target T1, NURR-1/RXRα (Homo sapiens, UniProt P19793).
T1 construct: expressed in transfected cells; host or cells: Cos-7 cells
Kind of series: Transactivation test, NURR-1-Gal4/RXRα, luciferase reporter in Cos-7 cells. As to conditions: for Emax: COS-7, induction level relative to reference XCT0135908 at 2×10^−5 M (=100%), read-out: hNurr1_RXRaFL Emax (%); for EC50: Cos-7 cells, NURR-1-Gal4/RXRα, luciferase reporter, read-out: hNurr1_RXRaFL EC50. It is filed as cell-based.

For the next series, the target named is T2, NURR-1/RXRγ (Homo sapiens, UniProt P48443).
T2 construct: expressed in transfected cells; host or cells: Cos-7 cells
Kind of series: Transactivation test, NURR-1-Gal4/RXRγ, luciferase reporter in Cos-7 cells. The format is cell-based. As to conditions: for Emax: COS-7, induction level relative to reference XCT0135908 at 2×10^−5 M (=100%), read-out: hNurr1_RXRgFL Emax (%); for EC50: Cos-7 cells, NURR-1-Gal4/RXRγ, luciferase reporter, read-out: hNurr1_RXRgFL EC50.

27 compounds from US20170066717A1, “NEW PHENYLAZETIDINECARBOXYLATE OR -CARBOXAMIDE COMPOUNDS” (INVENTIVA, priority 2014, published 2017) can be followed below.

SMILES strings stand for the structures. Structures can show the parent of a compound that is named as a salt.

T2 sequence (P48443 whole entry): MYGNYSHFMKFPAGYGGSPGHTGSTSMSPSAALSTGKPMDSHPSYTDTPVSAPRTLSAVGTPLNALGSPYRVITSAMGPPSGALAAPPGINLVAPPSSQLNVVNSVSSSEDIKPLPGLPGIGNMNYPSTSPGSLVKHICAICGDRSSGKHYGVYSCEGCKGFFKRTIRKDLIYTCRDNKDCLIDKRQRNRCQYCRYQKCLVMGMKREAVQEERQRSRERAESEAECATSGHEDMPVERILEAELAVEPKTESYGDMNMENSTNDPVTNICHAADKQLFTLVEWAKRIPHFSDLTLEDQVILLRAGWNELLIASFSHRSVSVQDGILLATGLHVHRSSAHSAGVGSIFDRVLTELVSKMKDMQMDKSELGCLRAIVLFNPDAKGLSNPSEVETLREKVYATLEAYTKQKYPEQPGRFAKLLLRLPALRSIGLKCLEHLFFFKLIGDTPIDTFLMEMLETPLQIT
T2 sequence (P43354 whole entry partner): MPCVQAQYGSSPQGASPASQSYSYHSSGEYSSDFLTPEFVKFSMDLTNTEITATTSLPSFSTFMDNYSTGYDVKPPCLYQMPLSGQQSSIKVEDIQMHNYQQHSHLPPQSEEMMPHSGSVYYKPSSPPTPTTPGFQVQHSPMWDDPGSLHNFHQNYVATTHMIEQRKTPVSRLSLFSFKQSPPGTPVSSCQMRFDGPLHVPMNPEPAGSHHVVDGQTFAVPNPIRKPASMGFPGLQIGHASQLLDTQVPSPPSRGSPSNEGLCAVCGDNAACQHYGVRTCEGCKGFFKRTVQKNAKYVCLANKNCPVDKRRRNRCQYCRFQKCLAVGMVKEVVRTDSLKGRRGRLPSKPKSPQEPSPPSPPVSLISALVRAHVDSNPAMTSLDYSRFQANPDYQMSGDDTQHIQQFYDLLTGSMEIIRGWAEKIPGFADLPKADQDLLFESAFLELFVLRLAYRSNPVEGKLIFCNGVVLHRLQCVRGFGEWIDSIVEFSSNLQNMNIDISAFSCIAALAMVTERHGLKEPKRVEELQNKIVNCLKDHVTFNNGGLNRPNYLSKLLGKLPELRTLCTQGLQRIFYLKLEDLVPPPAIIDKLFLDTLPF
T2 sequence (P04386 1-147 partner limits assumed): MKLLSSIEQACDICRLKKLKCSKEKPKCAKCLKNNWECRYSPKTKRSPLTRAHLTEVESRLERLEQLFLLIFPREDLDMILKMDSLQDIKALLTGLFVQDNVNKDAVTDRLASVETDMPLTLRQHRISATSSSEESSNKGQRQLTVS
T1 sequence (P19793 whole entry): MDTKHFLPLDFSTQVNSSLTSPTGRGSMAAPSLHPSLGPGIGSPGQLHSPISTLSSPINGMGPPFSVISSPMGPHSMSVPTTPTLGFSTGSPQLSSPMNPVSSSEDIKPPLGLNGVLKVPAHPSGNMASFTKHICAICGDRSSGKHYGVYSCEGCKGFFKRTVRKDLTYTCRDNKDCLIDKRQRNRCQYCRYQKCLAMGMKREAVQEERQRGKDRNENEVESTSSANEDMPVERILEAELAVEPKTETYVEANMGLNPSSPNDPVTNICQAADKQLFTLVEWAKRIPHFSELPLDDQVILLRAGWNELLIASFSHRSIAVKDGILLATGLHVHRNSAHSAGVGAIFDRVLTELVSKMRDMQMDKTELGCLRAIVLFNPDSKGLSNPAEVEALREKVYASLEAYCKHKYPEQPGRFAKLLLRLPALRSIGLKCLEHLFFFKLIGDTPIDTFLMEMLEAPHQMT
T1 sequence (P43354 whole entry partner): as the sequence (P43354 whole entry partner) above
T1 sequence (P04386 1-147 partner limits assumed): as the sequence (P04386 1-147 partner limits assumed) above

As for `CCc1cc2c(c(-c3cccc(N4CC(C(=O)O)C4)c3)c1)NCC(C)(C)O2` (as salt: ammonium) [Example 207, tert-butylammonium 1-[3-(7-ethyl-2,2-dimethyl-3,4-dihydro-1,4-benzoxazin-5-yl)phenyl]azetidine-3-carboxylate], the melting point (commonly the temperature, or range, at which the solid turns liquid) fell in the range of 100 to 124 °C.
The same measure, in the same setting: in the case of `CN1CC2(CCC2)Oc2cc(C(C)(C)C)cc(-c3cccc(N4CC(C(=O)O)C4)c3)c21` (as salt: ammonium) [Example 213, tert-butylammonium 1-[3-(7-tert-butyl-4-methyl-spiro[3H-1,4-benzoxazine-2,1′-cyclobutane]-5-yl)phenyl]azetidine-3-carboxylate] it was 170 to 178 °C; in that of `CC1(C)CN(CC(F)(F)F)c2c(cc(C(F)(F)F)cc2-c2cccc(N3CC(C(=O)O)C3)c2)O1` (as salt: ammonium) [Example 215, tert-butylammonium 1-[3-[2,2-dimethyl-4 (2,2,2-trifluoromethyl)-7-(trifluoromethyl)-3H-1,4-benzoxazin-5-yl]phenyl]azetidine-3-carboxylate], 148 to 154 °C.
On the same count and under the same terms, the result for `CC(C)Cc1ccc2c(c1)OC(C)(C)CN2c1cccc(N2CC(C(=O)O)C2)c1` (as salt: ammonium) [Example 231, tert-butylammonium 1-[3-(7-isobutyl-2,2-dimethyl-3H-1,4-benzoxazin-4yl)phenyl]azetidine-3-carboxylate] reads 120 to 121 °C.
The same measure, in the same setting: in the case of `CC(C)c1ccc2c(c1)CC(C)(C)CN2c1cccc(N2CC(C(=O)O)C2)c1` (as salt: ammonium) [Example 245, tert-butylammonium 1-[3-(6-isopropyl-3,3-dimethyl-2,4-dihydroquinolin-1-yl)phenyl]azetidine-3-carboxylate] it was 165 to 177 °C.
`CC1(C)Oc2cc(C#N)ccc2N(c2cccc(N3CC(C(=O)O)C3)c2)C1=O` (as salt: ammonium) [Example 254, tert-butylammonium 1-[3-(7-cyano-2,2-dimethyl-3-oxo-1,4-benzoxazin-4-yl)phenyl]azetidine-3-carboxylate] had a melting point of 204 to 211 °C.
In turn, `O=C(O)C1CN(c2cccc(N3CC4(CCCC4)c4cc(Cl)ccc43)c2)C1` (as salt: ammonium) [Example 257, tert-butylammonium 1-[3-(5′-chlorospiro[cyclopentane-1,3′-indolin]-1′-yl)phenyl]azetidine-3-carboxyate] displayed a melting point of 131 to 133 °C.
The same measure, in the same setting: the result for `CCC1(CC)C=C(c2cccc(N3CC(C(=O)O)C3)c2)c2ccc(C(F)(F)F)cc2O1` (as salt: ammonium) [Example 265] reads 147 to 152 °C.
On the same count and under the same terms, in the case of `CC1(C)CC(c2cccc(N3CC(C(=O)O)C3)c2)c2ccc(C(F)(F)F)cc2O1` (centres unmarked) (as salt: ammonium) [Example 270, tert-butylammonium 1-[3-[2,2-dimethyl-7-(trifluoromethyl)chroman-4-yl]phenyl]azetidine-3-carboxylate] it was 116 to 122 °C; in that of `CCCc1ccc(C(C)C)cc1-c1cccc(N2CC(C(=O)O)C2)c1` (as salt: salt) [Example 195, piperazin-1-ium-1-[3-(5-isopropyl-2-propylphenyl)phenyl]azetidine-3-carboxylate], 109 °C.
Same read-out and setting: in the case of `CC1(C)CN(c2cccc(N3CC(C(=O)O)C3)c2)c2ccc(Br)cc2O1` (as salt: sodium) [Example 222, sodium 1-[3-(7-bromo-2,2-dimethyl-3H-1,4-benzoxazin-4-yl)phenyl]azetidine-3-carbxoylate] it was 140 °C; in that of `O=C(O)C1CN(c2cccc(N3CCOc4cc(C(F)(F)F)ncc43)c2)C1` (as salt: sodium) [Example 240, sodium 1-[3-[7-(trifluoromethyl)-2,3-dihydropurido[4,3][1,4]oxazin-4-yl]phenyl]azetidine-3-carboxylate], 49 to 63 °C.
`O=C(O)C1CN(c2cccc(-c3cc(C(F)(F)F)cc4c3NCCO4)c2)C1` [Example 65, 1-[3-[7-(trifluoromethyl)-3,4-dihydro-2H-1,4-benzoxazin-5-yl]phenyl]azetidine-3-carboxylic acid] showed a melting point of 76 to 79 °C. Moreover, at NURR-1/RXRα, the maximum response (Emax) (as a rule, the greatest response seen or fitted, relative to the assay's reference) is 99% and the EC50 – broadly, the concentration at which the effect is half-maximal – was 10 nM.
In the same order, the values of `CN(C)C(=O)c1cn(-c2cccc(N3CC(C(=O)O)C3)c2)c2ccc(C(F)(F)F)cc12` [Example 131] are 230 to 234 °C, 55% and 2920 nM.
In the same order, the values of `CCS(=O)(=O)c1cn(-c2cccc(N3CC(C(=O)O)C3)c2)c2ccc(C(F)(F)F)cc12` [Example 138, 1-[3-[3-(ethylsulfonyl)-5-(trifluoromethyl)indol-1-yl]phenyl]azetidine-3-carboxylic acid] are 161 to 168 °C, 116% and 134 nM.
In the same order, the values of `CC(C)(C)c1cc2c(c(-c3cccc(N4CC(C(=O)[O-])C4)c3)c1)NCC1(CCC1)O2.[Na+]` [Example 205, sodium 1-[3-(7-tert-butylspiro[3,4-dihydro-1,4-benzoxazine-2,1′-cyclobutane]-5-yl)phenyl]azetidine-3-carboxylate] are 190 to 200 °C, 115% and 4 nM.
`CC(C)c1cc2c(c(-c3cccc(N4CC(C(=O)[O-])C4)c3)c1)NCC(C)(C)C2.[Na+]` [Example 208, sodium 1-[3-(6-isopropyl-3,3-dimethyl-2,4-dihydro-1H-quinoline-8-yl)phenyl]azetidine-3-carboxylate] yielded a melting point of 196 to 203 °C. Moreover, at NURR-1/RXRα, the maximum response (Emax) came to 109% and the 50% effective concentration (EC50) came to 11 nM.
`Cc1cc2c(c(-c3cccc(N4CC(C(=O)[O-])C4)c3)c1)NCCC(C)(C)O2.[Na+]` [Example 209, sodium 1-[3-(2,2,8-trimethyl4,5-dihydro-3H-1,5-benzoxazepin-6-yl)phenyl]azetidine-3-carboxylate] registered a melting point of 145 to 154 °C. Further, at NURR-1/RXRα, the maximum response (Emax) worked out at 95% and the EC50 was 212 nM.
Take `CC1(C)CCNc2c(cc(C(C)(C)C)cc2-c2cccc(N3CC(C(=O)[O-])C3)c2)O1.[Na+]` [Example 210, sodium 1-[3-(8-tert-butyl-2,2-dimethyl-4,5-dihydro-3H-1,5-benzoxazepin-6-yl)phenyl]azetidine-3-carboxylate]: the melting point fell in the range of 169 to 176 °C. In addition, at NURR-1/RXRα, the maximal response (Emax) is 88% and the concentration for a half-maximal effect (EC50) came to 75 nM.
In the same order, the values of `CN1CC(C)(C)Oc2cc(C(C)(C)C)cc(-c3cccc(N4CC(C(=O)[O-])C4)c3)c21.[Na+]` [Example 211, sodium 1-[3-(7-tert-butyl-2,2,4-trimethyl-3H-1,4-benzoxazin-5-yl)phenyl]azetidine-3-carbxoylate] are 245 to 246 °C, 94% and 0.91 nM.
Compound `CC1(C)Oc2cc(C#N)ccc2N(c2cccc(N3CC(C(=O)O)C3)c2)C1=O` [Example 253, 1-[3-(7-cyano-2,2-dimethyl-3-oxo-1,4-benzoxazin-4-yl)phenyl]azetidine-3-carboxylic acid] showed a melting point of 88 to 104 °C.
On to `CC1(C)C=C(c2cccc(N3CC(C(=O)[O-])C3)c2)c2ccc(C(C)(C)C)cc2O1.[Na+]` [Example 267, sodium 1-[3-(7-tert-butyl-2,2-dimethylchromen-4-yl)phenyl]azetidine-3-carboxylate], for which the melting point was 212 to 233 °C. On NURR-1/RXRα, the maximum response (Emax) was 115% and the EC50 came to 13 nM.
With `CC1(C)CN(c2cccc(N3CC(C(=O)NCCO)C3)c2)c2ccc(C(F)(F)F)cc2O1` [Example 275, 1-[3-[2,2-dimethyl-7-(trifluoromethyl)-3H-1,4-benzoxazin-4-yl]phenyl]-N-(2-hydroxyethyl)azetidine-3-carboxamide], on NURR-1/RXRγ, the Emax came out at 98% and the EC50 came to 44 nM. In addition, on NURR-1/RXRα, the maximal effect (Emax) came to 109% and the EC50 amounted to 8 nM.
In the same order, the values of `CC1(C)CN(c2cccc(N3CC(C(=O)NC(CO)CO)C3)c2)c2ccc(C(F)(F)F)cc2O1` [Example 276, 1-[3-[2,2-dimethyl-7-(trifluoromethyl)-3H-1,4-benzoxazin-4-yl]phenyl]N-[2-hydroxy-1-(hydroxymethyl)ethyl]azetidine-3-carboxamide] are 92%, 150 nM, 105% and 15 nM.
In the same order, the values of `CC1(C)CN(c2cccc(N3CC(C(=O)NCC(O)CO)C3)c2)c2ccc(C(F)(F)F)cc2O1` (centres unmarked) [Example 277, N-(2,3-dihydroxypropyl)-1-[3-[2,2-dimethyl-7-(trifluoromethyl)-3H-1,4-benzoxazin-4-yl]phenyl]azetidine-3-carboxamide] are 97%, 52 nM, 103% and 19 nM.
In the same order, the values of `CC1(C)CN(c2cccc(N3CC(C(=O)NCCCO)C3)c2)c2ccc(C(F)(F)F)cc2O1` [Example 278, 1-[3-[2,2-dimethyl-7-(trifgluoromethyl)-3H-1,4-benzoxazin-4-yl]phenyl]-N-(3-hydroxypropyl)azetidine-3-carboxamide] are 117%, 74 nM, 110% and 29 nM.
Turning to `CN(C)CCNC(=O)C1CN(c2cccc(N3CC(C)(C)Oc4cc(C(F)(F)F)ccc43)c2)C1` [Example 279, N-3(2-dimethylaminoethyl)-1-[3-[2,2-dimethyl-7-(trifluoromethyl)-3H-1,4-benzoxazin-4-yl]phenyl]azetidine-3-carboxamide], the Emax at NURR-1/RXRγ is 79%; at NURR-1/RXRα, 95%. Also, the EC50 at NURR-1/RXRα worked out at 375 nM.
